Results on five compounds are retold here after PubChem BioAssay (NCI).

Test systems include HOP-18 NSCLC; MALME-3M melanoma; ACHN renal; CAKI-1 renal; OVCAR-8 ovarian; OVCAR-5 ovarian; SK-MEL-2 melanoma; DMS 114 small cell lung.
What all share (assay): DTP human tumour cell line panel, 48 h

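These data come from cells grown in 96-well plates and exposed to compound for 48 hours at five concentrations. TGI is the concentration that stops growth completely.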 Some results are limits rather than exact numbers.

On to `CN(C)C(=O)NC(=S)N(C)C`, for which the TGI in the assay on HOP-18 NSCLC, in the assay on MALME-3M melanoma, with ACHN renal, with CAKI-1 renal, in the assay on OVCAR-8 ovarian and in the assay with OVCAR-5 ovarian was greater than 100 µM each time. In addition, the total growth inhibition concentration (TGI) in the assay with SK-MEL-2 melanoma and in the assay with DMS 114 small cell lung was greater than 100 µM in each case.

As for `Cc1cc(=O)n(-c2c(C)cccc2Cl)c(/C=C(\O)c2ccncc2)n1`, the TGI in the assay with HOP-18 NSCLC, in the assay on MALME-3M melanoma, with ACHN renal, in the assay with CAKI-1 renal, with OVCAR-8 ovarian and in the assay with OVCAR-5 ovarian was greater than 100 µM each time. Moreover, the concentration for total growth inhibition (TGI) with SK-MEL-2 melanoma and in the assay on DMS 114 small cell lung was greater than 100 µM in each case.

With `CC1=C(C(=O)NCc2ccccc2)C(c2ccccc2C)C(C(=O)NCc2ccccc2)=C(C)N1`, the total growth inhibition concentration (TGI) with HOP-18 NSCLC is greater than 91.2 µM; with MALME-3M melanoma it was greater than 100 µM; with ACHN renal, 38.4 µM; in the assay with CAKI-1 renal, greater than 100 µM; in the assay with OVCAR-8 ovarian, 32.8 µM; with OVCAR-5 ovarian, greater than 95.5 µM. The TGI with SK-MEL-2 melanoma was 38.5 µM; with DMS 114 small cell lung it was greater than 67.7 µM.

As for `COc1ccc(S(=O)(=O)N[C@H](C(=O)O)c2ccccc2)cc1`, the TGI in the assay with HOP-18 NSCLC, in the assay with MALME-3M melanoma, in the assay with ACHN renal, with CAKI-1 renal, in the assay on OVCAR-8 ovarian and in the assay with OVCAR-5 ovarian was greater than 100 µM throughout. The TGI with SK-MEL-2 melanoma and in the assay with DMS 114 small cell lung was greater than 100 µM throughout.

With `CCCCCCCCCCCCCCCCc1c(C(=O)OC)nc(NN)[nH]c1=O`, the TGI in the assay with HOP-18 NSCLC, with MALME-3M melanoma, in the assay on ACHN renal, with CAKI-1 renal, in the assay with OVCAR-8 ovarian and in the assay with OVCAR-5 ovarian was greater than 50 µM throughout. In addition, the total growth inhibition concentration (TGI) in the assay with SK-MEL-2 melanoma and in the assay on DMS 114 small cell lung was greater than 50 µM in each case.

For orientation: TGI means the concentration at which net growth stops. A higher TGI goes with lower sensitivity of the cells.
